pIC50: −log10 of the molar value.
Columns and labels:
Mus musculus = organism: Mus musculus; experiment: Antiangiogenic activity in mouse assessed as inhibition of VEGF-induced angiogenesis at 10 uM by Matrigel plug assay; type: functional
XF498 = experiment: Anticancer activity against human XF498 cells by sulforhodamine B assay; type: functional, cell-based
HCT-15 = experiment: Anticancer activity against human HCT15 cells by sulforhodamine B assay; type: functional, cell-based
SK-OV-3 = experiment: Anticancer activity against human SKOV3 cells by sulforhodamine B assay; type: functional, cell-based
A549 = experiment: Anticancer activity against human A549 cells by sulforhodamine B assay; type: functional, cell-based
SK-MEL-2 = experiment: Anticancer activity against human SK-MEL-2 cells by sulforhodamine B assay; type: functional, cell-based

Row | Compound | inhibition (INH) (Mus musculus) [%] | pIC50 (XF498) | pIC50 (HCT-15) | pIC50 (SK-OV-3) | pIC50 (A549) | pIC50 (SK-MEL-2)
1 | C[C@@H]1CCC2[C@@H](C)[C@@H](CCNC(=O)CC[C@H](NC(=O)CC[C@H]3O[C@@H]4O[C@]5(C)CC[C@H]6[C@H](C)CCC([C@H]3C)[C@@]46OO5)C(=O)NCC[C@H]3O[C@@H]4O[C@]5(C)CC[C@H]6[C@H](C)CCC([C@H]3C)[C@@]46OO5)O[C@@H]3O[C@]4(C)CC[C@@H]1[C@@]23OO4 (stereo not given in full) | 80 | 4.94 | 4.70 | 4.91 | 4.87 | 4.74
2 | C[C@@H]1CCC2[C@@H](C)[C@@H](CCNC(=O)CC[C@H]3O[C@@H]4O[C@]5(C)CC[C@H]6[C@H](C)CCC([C@H]3C)[C@@]46OO5)O[C@@H]3O[C@]4(C)CC[C@@H]1[C@@]23OO4 (stereo not given in full) | – | 5.24 | 5.11 | 5.36 | 5.12 | 5.00
3 | C[C@@H]1CCC2[C@@H](C)[C@@H](CCC(=O)NCc3ccccc3)O[C@@H]3O[C@]4(C)CC[C@@H]1[C@@]23OO4 (stereo not given in full) | – | 5.46 | 5.21 | 5.32 | 5.29 | 5.08
4 | C[C@@H]1CC[C@H]2[C@H](CBr)CO[C@@H]3O[C@]4(C)CC[C@@H]1[C@]32OO4 | 95 | 4.79 | 4.95 | 4.81 | 4.95 | 4.85
5 | C[C@@H]1CC[C@H]2[C@@H](C)C(=O)O[C@@H]3O[C@@]4(C)CC[C@@H]1[C@]32OO4 [ARTEMISININ] | – | 4.79 | 4.76 | 4.84 | 4.82 | 4.89
6 | C[C@H]1[C@@H](CCSCC[C@H]2O[C@@H]3O[C@]4(C)CC[C@H]5[C@H](C)CCC([C@H]2C)[C@@]35OO4)O[C@@H]2O[C@]3(C)CCC4[C@H](C)CC[C@@H]1[C@]42OO3 (stereo not given in full) | – | 5.26 | 5.45 | 5.31 | 5.25 | 5.12
7 | COC(=O)[C@@H](CS)N(Cc1ccccc1)C(=O)CC[C@H]1O[C@@H]2O[C@]3(C)CC[C@H]4[C@H](C)CCC([C@H]1C)[C@@]24OO3 (stereo not given in full) | – | 5.58 | 5.81 | 5.63 | 5.51 | 5.50
8 | CO[C@H]1O[C@@H]2O[C@@]3(C)CC[C@H]4[C@H](C)CC[C@@H]([C@H]1C)[C@@]24OO3 [ARTEMETHER] | – | 5.04 | 5.02 | 5.10 | 5.07 | 5.14
9 | C[C@@H]1CCC2[C@@H](C)[C@@H](CCC(=O)NCCCN3CCN(CCCNC(=O)CC[C@H]4O[C@@H]5O[C@]6(C)CC[C@H]7[C@H](C)CCC([C@H]4C)[C@@]57OO6)CC3)O[C@@H]3O[C@]4(C)CC[C@@H]1[C@@]23OO4 (stereo not given in full) | – | 6.34 | 6.08 | 6.20 | 6.07 | 6.35
10 | C[C@H]1[C@@H](O)O[C@@H]2O[C@@]3(C)CC[C@H]4[C@H](C)CC[C@@H]1[C@@]24OO3 [ARTENIMOL] | – | 6.27 | 6.34 | 6.07 | 6.20 | 6.12
11 | C[C@@H]1CCC2[C@@H](C)[C@@H](CCC(=O)N3CCC(Cc4ccccc4)CC3)O[C@@H]3O[C@]4(C)CC[C@@H]1[C@@]23OO4 (stereo not given in full) | – | 5.71 | 5.84 | 5.78 | 5.87 | 5.90
12 | COc1cccc2c1C(=O)c1c(O)c3c(c(O)c1C2=O)C[C@@](O)(C(=O)CO)C[C@@H]3O[C@H]1C[C@H](N)[C@H](O)[C@H](C)O1 [DOXORUBICIN] | – | – | – | 7.34 | 7.12 | 7.55
